These results are taken from publication PMC3401280, “Moth Sex Pheromone Receptors and Deceitful Parapheromones” (PLoS ONE, 2012).

Common to all, as to assay type: cell-based
Experiment [1] deals with T1, AtraOR1 (Amyelois transitella, UniProt J7FXC2).
T1 construct: full ORF (428 residues, JX173648) in pGEMHE, expressed in Xenopus oocytes; with AtraOrco
T1 sequence (J7FXC2 1-427): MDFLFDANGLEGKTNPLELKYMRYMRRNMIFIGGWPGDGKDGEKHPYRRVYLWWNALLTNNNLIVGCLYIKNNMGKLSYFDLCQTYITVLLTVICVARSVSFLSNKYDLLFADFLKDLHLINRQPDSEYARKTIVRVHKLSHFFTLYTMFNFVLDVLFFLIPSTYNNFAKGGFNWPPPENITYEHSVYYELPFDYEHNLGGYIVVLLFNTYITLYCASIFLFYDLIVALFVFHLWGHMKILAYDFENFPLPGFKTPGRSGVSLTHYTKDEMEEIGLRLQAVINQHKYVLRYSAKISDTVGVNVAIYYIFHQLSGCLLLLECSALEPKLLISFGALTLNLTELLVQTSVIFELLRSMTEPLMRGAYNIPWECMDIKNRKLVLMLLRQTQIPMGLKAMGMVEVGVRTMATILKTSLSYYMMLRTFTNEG
T1 sequence (J7G1V0 1-474 partner): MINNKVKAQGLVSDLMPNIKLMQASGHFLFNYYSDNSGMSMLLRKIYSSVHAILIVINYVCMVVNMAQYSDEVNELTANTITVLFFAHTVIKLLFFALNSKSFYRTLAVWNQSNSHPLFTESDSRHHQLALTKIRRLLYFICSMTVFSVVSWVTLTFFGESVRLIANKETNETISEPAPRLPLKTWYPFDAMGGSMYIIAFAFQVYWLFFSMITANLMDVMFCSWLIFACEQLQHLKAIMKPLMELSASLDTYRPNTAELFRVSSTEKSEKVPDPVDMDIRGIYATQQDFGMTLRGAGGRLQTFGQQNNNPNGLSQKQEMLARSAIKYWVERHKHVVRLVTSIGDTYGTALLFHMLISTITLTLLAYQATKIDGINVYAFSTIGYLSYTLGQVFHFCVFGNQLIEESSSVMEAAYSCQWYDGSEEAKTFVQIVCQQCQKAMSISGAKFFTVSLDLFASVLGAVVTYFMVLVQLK
As to the kind of experiment: two-electrode voltage clamp in Xenopus oocytes.

In a further experiment the target is T2, HvirOR13 (HR13) (Heliothis virescens, UniProt Q6A1K1).
T2 construct: full ORF (AJ748328) in pGEMHE, expressed in Xenopus oocytes; with HvirOrco (HR2)
T2 sequence (Q6A1K1 1-425): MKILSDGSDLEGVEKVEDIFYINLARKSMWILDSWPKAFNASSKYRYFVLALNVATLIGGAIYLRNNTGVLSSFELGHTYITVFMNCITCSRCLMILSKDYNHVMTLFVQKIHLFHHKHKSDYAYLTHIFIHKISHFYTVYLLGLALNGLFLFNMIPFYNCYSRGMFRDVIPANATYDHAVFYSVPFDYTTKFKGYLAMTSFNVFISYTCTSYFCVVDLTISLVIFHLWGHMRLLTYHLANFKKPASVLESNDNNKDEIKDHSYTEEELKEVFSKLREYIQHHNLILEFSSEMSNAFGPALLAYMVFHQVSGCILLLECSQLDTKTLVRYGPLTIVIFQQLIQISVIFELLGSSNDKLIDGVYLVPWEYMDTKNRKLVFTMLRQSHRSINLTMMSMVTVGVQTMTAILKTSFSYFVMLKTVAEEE
T2 sequence (Q8MMI4 1-472 partner): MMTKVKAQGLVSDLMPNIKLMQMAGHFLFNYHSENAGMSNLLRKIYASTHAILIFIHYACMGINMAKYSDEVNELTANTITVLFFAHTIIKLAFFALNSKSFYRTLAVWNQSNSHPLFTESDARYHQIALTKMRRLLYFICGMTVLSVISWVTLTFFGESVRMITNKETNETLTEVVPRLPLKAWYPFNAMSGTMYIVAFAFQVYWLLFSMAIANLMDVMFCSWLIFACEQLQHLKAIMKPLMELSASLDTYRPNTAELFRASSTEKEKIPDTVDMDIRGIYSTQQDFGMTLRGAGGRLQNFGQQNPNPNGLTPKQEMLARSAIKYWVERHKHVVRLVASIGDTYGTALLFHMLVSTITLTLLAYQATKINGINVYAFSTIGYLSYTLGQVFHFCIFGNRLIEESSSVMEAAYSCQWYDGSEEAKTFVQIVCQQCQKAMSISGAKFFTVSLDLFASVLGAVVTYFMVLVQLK
Nature of the experiment: two-electrode voltage clamp in Xenopus oocytes.

For experiment [2], the target named is T1, AtraOR1. As to the kind of experiment: two-electrode voltage clamp in Xenopus oocytes, screened at […].

Structures can show the parent of a compound that is named as a salt. Where two headings read alike, the source gives them in different places.

In turn, `CC/C=C\C=C/CCCCCCCCCC=O` [Z11Z13-16Ald, (11Z,13Z)-hexadecadienal] displayed an EC50 on AtraOR1 [1] of 499 nM.
Compound `CC/C=C\C=C/CCCCCCCCOC=O` [Z9Z11-14OFor, (9Z,11Z)-tetradecadien-1-yl formate] gave an EC50 on AtraOR1 [1] of 90 nM.
As to `CCCC/C=C\CCCCCCCCCC=O` [Z11-16Ald, (11Z)-hexadecenal], at HvirOR13 (HR13) (read-out: EC50), the EC50 came out at 150 nM.
On HvirOR13 (HR13), `CCCC/C=C\CCCCCCCCOC=O` [Z9-14OFor, (9Z)-tetradecen-1-yl formate] registered a concentration giving a half-maximal response (EC50) of 33 nM.
Consider `CC/C=C\C=C/CCCCCCCCCCO` [Z11Z13-16OH, (11Z,13Z)-hexadecadien-1-ol], for which the “two-electrode voltage clamp in Xenopus oocytes, screened at 100 μM” value at AtraOR1 [2] is given as “AtraOR1•AtraOrco-expressing oocytes showed moderate response to Z11Z13-16OH”.
